In patent publication US9636335B2, “Heteroaryl compounds as 5-HT4 receptor ligands” (Suven Life Sciences Ltd, priority 2011, dated 2017):
Where a name gives a salt, the structure may show the parent alone.

Tested on: not listed separately
Experiment: Rodent pharmacokinetic study
Assay type: in vivo, Male Wister rats
Conditions: plasma; Wistar/Male rat, 5 mg/kg, intravenous (bolus)
Method: Three to five animals were housed in each cage. […] Animals were fasted over night before oral dosing (p.o) and food pellets were allowed 2 hours post dosing, whereas intravenous dosing food and water were provided as ad libitum. Three rats were dosed with compounds of formula (I) (10 mg/kg) orally and intravenously (05 mg/kg).
At each time point blood was collected through jugular vein and immediately replenish with an equivalent volume of normal saline from freely moving rats. Collected blood was transferred into a labeled eppendr off containing 10 μL of heparin as anticoagulant. Typically blood samples were collected as following time points: Pre dose, 0.08 (only i.v.), 0.25, 0.5, 1, 2, 4, 6, 8, and 24 hours post dose (n=3). Blood was centrifuged at 4000 rpm for 10 minutes. Plasma was prepared and stored frozen at −20° C. until analysis.
Pharmacokinetic parameters Cmax, Tmax, AUCt, T1/2 and Bioavailability were calculated by non-compartmental model using standard non-compartmental model by using WinNonLin 5.0.1 or Phoenix WinNonlin 6.2 version Software package.

AUC(0-t) [ng·h/mL]	half-life [min]	Compound	Tmax [min]
–	–	COCCCN1CCC(c2nnc(-c3nn(C(C)C)c4ccccc34)o2)CC1.O=C(O)C(=O)O [Example 3, 1-isopropyl-3-{5-[1-(3-methoxypropyl)piperidin-4-yl]-[1,3,4]oxadiazol-2-yl}-1H-indazole oxalate salt]	4.8
1060 ± 163	99 ± 28.2	CC(C)n1nc(-c2nnc(C3CCN(CC4CC4)CC3)o2)c2ccccc21 [Example 39, 3-[5-(1-Cyclopropylmethyl-piperidin-4-yl)-[1,3,4]oxadiazol-2-yl]-1-isopropyl-1H-indazole]	4.8

Same assay, conditions: plasma; Wistar/Male rat, 10 mg/kg, oral (gavage)

AUC(0-t) [ng·h/mL]	half-life [min]	Compound	Tmax [min]
–	–	COCCCN1CCC(c2nnc(-c3nn(C(C)C)c4ccccc34)o2)CC1.O=C(O)C(=O)O [Example 3, 1-isopropyl-3-{5-[1-(3-methoxypropyl)piperidin-4-yl]-[1,3,4]oxadiazol-2-yl}-1H-indazole oxalate salt]	25.2 ± 7.2
394 ± 174	82.8 ± 4.2	CC(C)n1nc(-c2nnc(C3CCN(CC4CC4)CC3)o2)c2ccccc21 [Example 39, 3-[5-(1-Cyclopropylmethyl-piperidin-4-yl)-[1,3,4]oxadiazol-2-yl]-1-isopropyl-1H-indazole]	25.2 ± 7.2

Molecular target: recombinant human 5-HT4 receptor (Homo sapiens (Human), UniProt Q13639)
Sequence (Q13639 whole entry): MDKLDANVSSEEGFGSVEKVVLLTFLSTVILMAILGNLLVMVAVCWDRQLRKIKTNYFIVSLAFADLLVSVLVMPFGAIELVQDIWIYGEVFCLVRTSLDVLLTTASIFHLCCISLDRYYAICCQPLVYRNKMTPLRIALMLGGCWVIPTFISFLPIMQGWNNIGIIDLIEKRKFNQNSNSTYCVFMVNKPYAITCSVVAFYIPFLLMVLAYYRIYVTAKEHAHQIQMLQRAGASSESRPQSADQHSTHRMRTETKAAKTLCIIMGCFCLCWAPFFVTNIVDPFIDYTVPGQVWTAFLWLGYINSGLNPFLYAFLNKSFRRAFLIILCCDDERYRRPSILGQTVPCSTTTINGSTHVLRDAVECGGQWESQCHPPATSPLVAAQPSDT
Experiment: Determination of EC50 values for 5-HT4 receptor (CHO cells, pCRE-Luc reporter)
Assay type: cell-based
Conditions: CHO cells expressing human 5-HT4 receptor, luciferase activity, 4 hours incubation
Method: A stable CHO cell line expressing recombinant human 5-HT4 receptor and pCRE-Luc reporter system was used for cell-based assay. The assay offers a non-radioactive based approach to determine binding of a compound to GPCRs. In this specific assay, the level of intracellular cyclic AMP which is modulated by activation or inhibition of the receptor is measured. The recombinant cells harbor luciferase reporter gene under the control of cAMP response element.
The above cells were grown in 96 well clear bottom white plates in Hams F12 medium containing 10% fetal bovine serum (FBS). Prior to the addition of compounds or standard agonist, cells were serum starved overnight. Increasing concentrations of test compounds were added in OptiMEM medium to the cells. The incubation was continued at 37° C. in CO2 incubator for 4 hours. Medium was removed and cells were washed with phosphate buffered saline. The cells were lysed and luciferase activity was measured in a Luminometer. Luminescence units were plotted against the compound concentrations using Graphpad software.

Compound	EC50 [nM]
CCOC(=O)N1CCC(N2CCC(c3nnc(-c4cc(Cl)c(N)c5c4OCCO5)o3)CC2)CC1 [Example 6, 4-[5-(8-amino-7-chloro-2,3-dihydrobenzo[1,4]dioxin-5-yl)-[1,3,4]oxadiazol-2-yl]-[1,4′]bipiperidinyl-1′-carboxylic acid ethyl ester oxalate salt]	4.2
Nc1c(Cl)cc(-c2nnc(C3CCN(C4CC4)CC3)o2)c2c1OCCO2 [Example 29, 6-Chloro-8-[5-(1-cyclopropyl-piperidin-4-yl)-[1,3,4]oxadiazol-2-yl]-2,3-dihydro-benzo[1,4]dioxin-5-ylamine oxalate salt]	21.5
CC(C)N1CCC(c2nnc(-c3cc(Cl)c(N)c4c3OCCC4)o2)CC1 [Example 12, 6-Chloro-8-[5-(1-isopropyl-piperidin-4-yl)-[1,3,4]oxadiazol-2-yl]-chroman-5-ylamine]	15.3
CC(C)N1CC2C(C1)C2c1nnc(-c2cc(Cl)c(N)c3c2OCCC3)o1 (stereo not drawn) [Example 22, 6-Chloro-8-[5-(3-isopropyl-3-aza-bicyclo[3.1.0]hex-6-yl)-[1,3,4]oxadiazol-2-yl]-chroman-5-ylamine oxalate salt]	48
Nc1c(Cl)cc(-c2nnc(C3CCN(C4CCCC4)CC3)o2)c2c1CCCO2 [Example 17, 6-Chloro-8-[5-(1-cyclopentyl-piperidin-4-yl)-[1,3,4]oxadiazol-2-yl]-chroman-5-ylamine tartarate salt]	2.3
Nc1c(Cl)cc(-c2nnc(C3CCN(CC4CC4)CC3)o2)c2c1CCCO2 [Example 11, 6-Chloro-8-[5-(1-cyclopropylmethyl-piperidin-4-yl)-[1,3,4]oxadiazol-2-yl]-chroman-5-ylamine]	10.2
Nc1c(Cl)cc(-c2nnc(C3CCN(CC4CCOCC4)CC3)o2)c2c1CCO2 [Example 33, 5-Chloro-7-{5-[1-(tetrahydro-pyran-4-ylmethyl)-piperidin-4-yl]-[1,3,4]oxadiazol-2-yl}-2,3-dihydro-benzofuran-4-ylamine oxalate]	21
Nc1c(Cl)cc(-c2nnc(C3CCN(C4CCOCC4)CC3)o2)c2c1OCCO2 [Example 30, 6-Chloro-8-{5-[1-(tetrahydro-pyran-4-yl)-piperidin-4-yl]-[1,3,4]oxadiazol-2-yl}-2,3-dihydro-benzo[1,4]dioxin-5-ylamine oxalate salt]	7.3
Nc1c(Cl)cc(-c2nnc(C3CCN(C4CCC4)CC3)o2)c2c1CCO2 [Example 28, 5-Chloro-7-[5-(1-cyclobutyl-piperidin-4-yl)-[1,3,4]oxadiazol-2-yl]-2,3-dihydro-benzofuran-4-ylamine oxalate salt]	10
Nc1c(Cl)cc(-c2nnc(C3C4CN(CC5CC5)CC43)o2)c2c1CCCO2 (stereo not drawn) [Example 24, 6-Chloro-8-[5-(3-cyclopropylmethyl-3-aza-bicyclo[3.1.0]hex-6-yl)-[1,3,4]oxadiazol-2-yl]-chroman-5-ylamine]	25

The next lines start with the values.

EC50 [nM]	Compound
20.4	COCCCN1CCC(c2nnc(-c3cc(Cl)c(N)c4c3OCCC4)o2)CC1 [Example 13, 6-Chloro-8-{5-[1-(3-methoxy-propyl)-piperidin-4-yl]-[1,3,4]oxadiazol-2-yl}-chroman-5-ylamine]
16.9	COCCCN1CCC(c2nnc(-c3cc(Cl)c(N)c4c3OCCO4)o2)CC1 [Example 31, 6-Chloro-8-{5-[1-(3-methoxy-propyl)-piperidin-4-yl]-[1,3,4]oxadiazol-2-yl}-2,3-dihydro-benzo[1,4]dioxin-5-ylamine oxalate salt]
7	Nc1c(Cl)cc(-c2nnc(C3CCN(C4CCOCC4)CC3)o2)c2c1CCO2 [Example 7, 5-Chloro-7-{5-[1-(tetrahydropyran-4-yl)piperidin-4-yl]-[1,3,4]oxadiazol-2-yl}-2,3-dihydro benzofuran-4-yl amine oxalate salt]
20	Nc1c(Cl)cc(-c2nnc(C3C4CN(CC5CCC5)CC43)o2)c2c1CCCO2 (stereo not drawn) [Example 23, 6-Chloro-8-[5-(3-cyclobutylmethyl-3-aza-bicyclo[3.1.0]hex-6-yl)-[1,3,4]oxadiazol-2-yl]-chroman-5-ylamine oxalate salt]
5.7	Nc1c(Cl)cc(-c2nnc(C3CCN(CC4CCC4)CC3)o2)c2c1CCCO2 [Example 10, 6-Chloro-8-[5-(1-cyclobutylmethyl-piperidin-4-yl)-[1,3,4]oxadiazol-2-yl]-chroman-5-ylamine]
60	Nc1c(Cl)cc(-c2nnc(C3CCN(C4CC4)CC3)o2)c2c1CCO2 [Example 27, 5-Chloro-7-[5-(1-cyclopropyl-piperidin-4-yl)-[1,3,4]oxadiazol-2-yl]-2,3-dihydro-benzofuran-4-ylamine oxalate salt]
181	CC(C)n1nc(-c2nnc(CCN3CCCCC3)o2)c2ccccc21 [Example 49, 1-Isopropyl-3-[5-(2-piperidin-1-yl-ethyl)-[1,3,4]oxadiazol-2-yl]-1H-indazole oxalate]
5	CCOC(=O)N1CCC(N2CCC(c3nnc(-c4cc(Cl)c(N)c5c4OCC5)o3)CC2)CC1 [Example 34, 4-[5-(4-Amino-5-chloro-2,3-dihydro-benzofuran-7-yl)-[1,3,4]oxadiazol-2-yl]-[1,4′]bipiperidinyl-1′-carboxylic acid ethyl ester oxalate]
53	Nc1c(Cl)cc(-c2nnc(CCN3CCCCC3)o2)c2c1CCCO2 [Example 18, 6-Chloro-8-[5-(2-piperidin-1-yl-ethyl)-[1,3,4]oxadiazol-2-yl]-chroman-5-ylamine]
